Results reported in patent publication US6486326B2, “iso-CBI and iso-CI analogs of CC-1065 duocarmycins” (The Scripps Research Institute, priority 1997, dated 2002).
pIC50: −log10 of the molar value. Several values for one entry are separate records, joined by “and”; a condition that tells them apart may be missing. Equal entries are not always repeated. Where two headings read alike, the source gives them in different places.

Key:
[1] = system: L1210; assay: In vitro cytotoxic activity; type: cell-based
[2] = Stability of neat sample to ambient light and storage; type: physicochemical; conditions: 48 h
Protocol: Exclusive spirocyclization with cyclopropane formation was observed, and no competitive O-alkylation leading to 36 was detected. However, prolonged exposure of neat 31 to ambient light at 25° C. […] Thus, the handling and storage of the iso-CBI based agents were conducted minimizing their exposure to light typically at subzero temperatures.

[3] = Solvolysis reactivity (UV, 50% CH3OH-aqueous buffer, pH 3); type: physicochemical; conditions: for k, solvolysis rate constant: pH 3, 25° C., CH3OH/aqueous buffer
Protocol: The solvolysis was followed spectrophotometrically by UV with the disappearance of the long-wavelength absorption band of the iso-CBI chromophore (397 nm), FIG. 3.
Solvolysis Reactivity: N-BOC-iso-CBI (31, 0.2 mg) was dissolved in CH3OH (1.5 mL) and mixed with pH 3 aqueous buffer (1.5 mL). The buffer contained 4:1:20 (v/v/v) 0.1 M citric acid, 0.2 M Na2HPO4, and H2O, respectively. The solvolysis solution was sealed and kept at 25° C. protected from light. The UV spectrum was measured at regular intervals every 1 h during the first 24 h, every 4 during the next 72 h, and every 12 h for an additional week. The decrease in the long wavelength absorption at 397 nm was monitored, FIG. 3. […] (FIG. 9).
Similarly, N—CO2Me-iso-CBI (33, 0.2 mg) was dissolved in CH3OH (1.5 mL) and mixed with pH 3 aqueous buffer (1.5 mL). The solvolysis solution was sealed and kept at 25° C. protected from light. The UV spectrum was measured at regular intervals every 1 h during the first 24 h, every 4 h during the next 72 h, and every 12 h for an additional week. The decrease in the long wavelength absorption at 395 nm was monitored, FIG. 3.
Similarly, 35 (0.2 mg) was dissolved in CH3OH (1.5 mL) and mixed with pH 3 aqueous buffer (1.5 mL). The solvolysis solution was sealed and kept at 25° C. protected from light. The UV spectrum was measured at regular intervals every 1 h during the first 12 h, every 2 h for the next 24 h, and every 4 h for an additional day. The decrease in the short wavelength absorption at 239 nm was monitored, FIG. 9.

[4] = system: w794 DNA (SV40 DNA segment, 144 bp); assay: DNA alkylation selectivity and efficiency, thermally-induced strand cleavage of w794 DNA; type: biochemical
Protocol: FIG. 5 illustrates thermally-induced strand cleavage of w794 DNA (SV40 DNA segment, 144 bp, nucleotide nos. 138-5238); DNA-agent incubation for 24 hours at 25° C., removal of unbound agent and 30 minutes of thermolysis (100° C.), followed by denaturing 8% PAGE and autoradiography, lane 1, control DNA; lanes 2-5, Sanger G, C, A, and T sequencing reactions; lanes 6-7 (−)-iso-CBI-TMI (1×10^−3 and 1×10^−4 M); lanes 8-9, (+)-CBI-TMI (1×10^−5 and 1×10^−4 M); lanes 10-11, (+)-duocarmycin SA (1×10^−5 and 1×10^−6).
FIG. 7 illustrates thermally-induced strand cleavage of w794 DNA (SV40 DNA segment, 144 bp, nucleotide nos. 138-5238); DNA-agent incubation for 24 h at 25° C., removal of unbound agent and 30 min of thermolysis (100° C.), followed by denaturing 8% PAGE and autoradiography; lane 1, control DNA; lanes 2-5, Sanger G, C, A, and T sequencing reactions; lanes 6-8 (+)-duocarmycin SA (1×10^−4 to 1×10^−6 M); lanes9-11, seco-iso-CI-TMI (1×10^−3 to 1×10^−5 M).
DNA Alkylation Selectivity and Efficiency: The DNA alkylation properties of the agents were examined within w794 and w836 duplex DNA for which comparative results are available for related agents. (Boger, D. L., et al., J. Am. Chem. Soc. 1994, 116, 11335; Boger, D. L., et al., J. Am. Chem. Soc. 1994, 116, 6461; and Boger, D. L., et al., J. Am. Chem. Soc. 1995, 117, 11647) The alkylation site identification and the assessment of the relative selectivity among the available sites were obtained by thermally-induced strand cleavage of the singly 5′ end-labeled duplex DNA after exposure to the agents. Following treatment of the end-labeled duplex DNA with a range of agent concentrations and temperatures in the dark, the unbound agent was removed by EtOH precipitation of the DNA Redissolution of the DNA in aqueous buffer, thermolysis (100° C., 30 min) to induce strand cleavage at the sites of DNA alkylation, denaturing high-resolution polyacrylamide gel electrophoresis (PAGE) adjacent to Sanger dideoxynucleotide sequencing standards, and autoradiography led to identification of the DNA cleavage and alkylation sites. The full details of this procedure have been disclosed elsewhere. (Boger, D. L., et al., Tetrahedron 1991, 47, 2661.)
DNA Alkylation Studies: Selectivity and Efficiency: Eppendorf tubes containing singly ^32p 5′-end-labeled double-stranded DNA (9 μL) (Boger, D. L., et al., Tetrahedron 1991, 47, 2661.) in TE buffer (10 mM Tris, 1 mM EDTA, pH 7.5) were treated with the agents in DMSO (1 μL, at the specified concentrations). The solutions were mixed by vortexing and brief centrifugation and subsequently incubated at 4° C., 25° C. or 37° C. for 24-72 h. […]

[5] = system: calf thymus DNA; assay: Calf thymus DNA alkylation, quantitation of adenine N3 adduct; type: biochemical; conditions: 4° C.
Protocol: This was addressed through a study of the alkylation of calf thymus DNA. Optimized conditions for the alkylation were established for (−)-44 on an analytical scale (100 μg of agent). For this purpose, the long-wavelength UV absorption of the agent and the adduct provided a useful quantitative measure of the adenine adduct, unreacted starting material and any side products (solvolysis or rearrangement), Table 3. Analytical HPLC analysis was used to confirm the identity of the products through correlation of retention times and UV spectral data with authentic materials. The preparative DNA alkylation reaction and subsequent isolation of (+)-66 was carried out under conditions determined to provide complete consumption of the agent in the presence of a large excess of DNA Thus, extraction (EtOAc) of the aqueous buffer solution containing calf thymus DNA following alkylation (4° C., 72 h, 150 bp) afforded no recovered (−)-44, and only a small amount (<5%) of the rearranged product 65. Conducting the reaction at 4° C. in the presence of a large excess of DNA precluded competitive solvolysis. Thermal treatment of the alkylated DNA in aqueous 10 mM sodium phosphate buffer (100° C., 30 min, pH 7.0) followed by EtOAc extraction provided 66 in 90-95% conversion, ≧95% purity (by HPLC). Repeating this thermal treatment provided little or no additional adduct. No trace of a competing guanine adduct could be detected. This high conversion to a single adduct established that 44 participates exclusively in the adenine N3 alkylation reaction under the conditions examined.

[6] = pH 3; comparison agents 55-61; cited from earlier work
[7] = cytotoxic activity, read-out: IC50
[8] = L1210, seco precursor, read-out: IC50, L1210

2-[((E)-3-(2-Methoxyphenyl)propenyl)carbonyl]-1,2,9,9a-tetrahydrocyclopropa[c]benzo[f]indol-1-one [compound 48]
cytotoxic potency, less potent than 44 and 46 [1]: 40-50 ×

CC(C)(C)OC(=O)N1CC2CC23C(=O)c2ccccc2C=C13 (racemic) [compound 31, 2-(tert-Butyloxycarbonyl)-1,2,9,9a-tetrahydrocyclopropa[c]benzo[f]indol-8-one]
stability of neat sample exposed to ambient light ([2]; ambient light, 25° C.): carbonylcyclopropane rearrangement to form 36 | stability of neat sample protected from light ([2]; protected from light by foil): remained unchanged | solvolysis reactivity relative to N-BOC-CBI / corresponding CBI-based agents (more reactive, less stable) ([3]; pH 3): 5 × | k, solvolysis rate constant [3]: 6.98e-06 s⁻¹ and 6.97e-06 s⁻¹ | cytotoxic potency of unnatural enantiomer relative to natural enantiomer (slightly more potent) [1]: 1-2 ×

COC(=O)N1CC2CC23C(=O)c2ccccc2C=C13 (racemic) [compound 33, 2-(Methoxycarbonyl)-1,2,9,9a-tetrahydrocyclopropa[c]benzo[f]indol-8-one]
k, solvolysis rate constant [3]: 6.4e-06 s⁻¹

COc1cc2cc(C(=O)N3CC4CC45C(=O)c4ccccc4C=C35)[nH]c2c(OC)c1OC (racemic) [compound 44, 2-[(5,6,7-Trimethoxyindol-2-yl)carbonyl]-1,2,9,9a-tetrahydrocyclopropa[c]benzo[f]indol-8-one]
DNA alkylation sequence selectivity compared with (+)-duocarmycin SA [4]: same sequence selectivity | adenine adduct 66 ([5]; 72 h, 75 base-pair equiv, analytical scale, HPLC/UV): 94% | adenine adduct 66 ([5]; 72 h, 150 base-pair equiv, analytical scale, HPLC/UV): 95% | adenine adduct 66 ([5]; 72 h, 150 base-pair equiv, preparative scale, isolation and weight): 92% | adenine adduct 66 ([5]; 120 h, 150 base-pair equiv, preparative scale, isolation and weight): 95% | cytotoxic potency, 44 compared with 46 [1]: equipotent

COc1ccc2[nH]c(C(=O)N3CC4CC45C(=O)c4ccccc4C=C35)cc2c1 (racemic) [compound 46, 2-[(5-Methoxyindol-2-yl)carbonyl]-1,2,9,9a-tetrahydrocyclopropa[c]benzo[f]indol-8-one]
cytotoxic potency, 44 compared with 46 [1]: equipotent

NC(=O)N1CCc2c1ccc1[nH]c(C(=O)N3CC4CC45C(=O)c4ccccc4C=C35)cc21 (racemic) [compound 52, 2-[(3-Carbamoyl-1,2-dihydro-3H-pyrrolo[3,2-e]indol-7-yl)carbonyl]-2,9,9a-tetrahydrocyclopropa[c]benzo[f]indol-8-one]
pIC50 [1, 7]: 9.70

NC(=O)N1CCc2c1ccc1[nH]c(C(=O)N3CCc4c3ccc3[nH]c(C(=O)N5CC6CC67C(=O)c6ccccc6C=C57)cc43)cc21 (racemic) [compound 54, 2-{[3-[N-(3-Carbamoyl-1,2-dihydro-3H-pyrrolo[3,2-e]indol-7-yl)carbonyl]-1,2-dihydro-3H-pyrrolo[3,2-e]indol-7-yl]carbonyl}-1,2,9,9a-tetrahydrocyclopropa[c]benzo[f]indol-1-one]
pIC50 [1, 7]: 10.30

COc1ccc2c(c1)C13CC1CN(C(=O)OC(C)(C)C)C3=CC2=O (racemic) [compound 59]
k, solvolysis rate constant [6]: 1.75e-06 s⁻¹

CC(C)(C)OC(=O)N1CC2CC23C1=CC(=O)c1ccc(C#N)cc13 (racemic) [compound 60]
k, solvolysis rate constant [6]: 9.9e-07 s⁻¹

CC(C)(C)OC(=O)N1CC2CC23C=CC(=O)C=C13 (racemic) [compound 61]
k, solvolysis rate constant [6]: 0.0198 s⁻¹

CC(C)(C)OC(=O)N1CC(COS(C)(=O)=O)c2c(O)cccc21 (stereo not shown) [compound 19]
pIC50 [1, 8]: 5.00

COc1cc2cc(C(=O)N3CC(COS(C)(=O)=O)c4c(O)cccc43)[nH]c2c(OC)c1OC (stereo not shown) [compound 20]
DNA alkylation efficiency, less efficient than (+)-duocarmycin SA ([4]; 24 h, 25° C., seco agent): 10 × | pIC50 [1, 8]: 8.22

O=C1C2=NCC3CC23C(=O)c2ccccc21 (stereo not shown) [compound 35, 9,9a-1H-Dihydrocyclopropa[c]benzo[f]indol-3,8-dione]
solvolysis reactivity relative to 31 or 33 (more reactive) ([3]; pH 3): 5-6 × | k, solvolysis rate constant [3]: 3.8e-05 s⁻¹

Cc1c[nH]c2c1C13CC1CN(C(=O)OC(C)(C)C)C3=CC2=O (stereo not shown) [compound 55]
k, solvolysis rate constant [6]: 5.26e-06 s⁻¹

COC(=O)C1(C)NC2=C(C1=O)C13CC1CN(C(=O)OC(C)(C)C)C3=CC2=O (stereo not shown) [compound 56]
k, solvolysis rate constant [6]: 1.75e-05 s⁻¹

COC(=O)c1cc2c([nH]1)C(=O)C=C1N(C(=O)OC(C)(C)C)CC3CC123 (stereo not shown) [compound 57]
k, solvolysis rate constant [6]: 1.08e-06 s⁻¹

CC(C)(C)OC(=O)N1CC2CC23C1=CC(=O)c1ccccc13 (stereo not shown) [compound 58]
k, solvolysis rate constant [6]: 1.45e-06 s⁻¹
